Laboratory results published in patent publication US20260242440A1, “NOVEL MEANS TO MODULATE NMDA RECEPTOR-MEDIATED TOXICITY” (FUNDAMENTAL PHARMA GMBH, priority 2018, published 2026).
“Also recorded” adds a separate entry of the source.

System: middle cerebral artery occlusion (MCAO) mouse stroke model
Assay: middle cerebral artery occlusion (MCAO) mouse stroke model, infarct volume
Type: in vivo
Settings: rAAV delivered stereotactically to mouse cortex 3 weeks before MCAO; quantified 7 days post-injury; vs PBS control
Text: Given the robust protective effect of SEQ ID NO:5 in cultured neurons, the inventors next analysed its neuroprotective potential in vivo using the middle cerebral artery occlusion (MCAO) mouse stroke model.
Stereotactic intracerebral injection to the cortex of mice: C57BL/6N male mice (8 weeks±5 days old) weighing 25±1 g were randomly grouped and anaesthetized with a mixture of Sedin©, Midazolam and Fentanyl®-Janssen and placed on a rodent stereotactic frame on a heat pad temperature controlled by a ATC1000 DC rectal thermometer (World Precision Instruments, Berlin). rAAV-SEQ ID NO:5) was infused into the left cortex (coordinates relative to Bregma: first site: AP 0.2 mm; ML 2.0; DV −2.0; second site: AP 0.2; ML 2.0; DV −1.8; third site: AP 0.2; ML 3.0; DV −4.0; forth site: AP 0.2; ML 3.0; DV −3.5.) using a Ultra Micro Pump III (World Precision Instruments, Berlin) to drive a 10 μl Nanofil syringe (World Precision Instruments, Berlin). […]
MCAO: Middle cerebral artery occlusion (MCAO) induced a permanent distal occlusion of the middle cerebral artery (MCA). […] The silver stained sections were scanned at 1200 dpi and infarct area was measured by using ImageJ software (NIH Image). Surgery was performed and ischemic damage was measured by an investigator who had no knowledge of the treatment group, rAAV or recombinant protein was applied by stereotactic injection or intranasal delivery.

SEQ ID NO:5: polypeptide, amino acid residues 633-689 of mouse TRPM4 (NSEERAARLLLRRCPLWGEATCLQLAMQADARAFFAQDGVQSLLTQKWWGEMDSTTP; listed as Mus musculus)
infarct volume: significantly smaller; also recorded: effectively reduced the infarct volumes
